Source: paper PMC10649961, “Novel Mitochondria-Targeted Amphiphilic Aminophosphonium Salts and Lipids Nanoparticles: Synthesis, Antitumor Activity and Toxicity” (Nanomaterials, 2023)

What was measured:
[1] = In vivo acute toxicity, single intraperitoneal injection; design: species or system mice; details: male, CD-1, mouse, in vivo, ip, male CD-1 mice, single intraperitoneal administration, 14 days, Probit analysis
Experimental: (§1) The study of acute toxicity was performed on males of outbred white mice of the CD-1 line at the age of 2–3 months, weighing 20–30 g. The total number of mice participating in the experiment was 300. Mice were obtained from the Research and Production Enterprise Laboratory Animal Farm based at the Branch of Shemyakin and Ovchinnikov Institute of Bioorganic Chemistry of the Russian Academy of Sciences (Pushchino, Russia). The animals were kept in accordance with in standard conditions in a vivarium with 12 h of daylight and free access to food and water. The animals were fed complete feed made according to specifications (protein 22%, fiber 4% max., fat 5% max, ash 9% max, humidity 13.5% max, caloric value 295 kcal/100 g). The studies were conducted with a single parenteral–intraperitoneal (intra-peritoneal) injection, according to the method.
(§2) The substances were introduced in a sterile saline DMSO (40% vol.) solution. Solutions of the substances were prepared immediately before administration. The total volume of the injected liquid was 0.1 mL/10 g of animal weight. As a control, a group of mice was administered under similar conditions an equivalent amount (0.1 mL/10 g, or 10 mL/kg) of a solvent—40% DMSO on sterile saline solution. The substances were administered in doses ranging from 1 to 100 mg/kg; there were six animals in each group. To assess acute toxicity, the animals were monitored 14 days after administration of the substance, assessing their general condition and recording deaths.
(§3) The study of the acute toxicity parameters of six aminophosphonium salts 4a, 4b, 4d, 5a, 5b, and 6b was performed on male outbreed white mice of the CD-1 line. Acute toxicity was determined with a single parenteral (intraperitoneal) administration in sterile saline/DMSO (40% vol.) solution at doses from 1 to 100 mg/kg. To assess acute toxicity, the animals were monitored for 14 days after the introduction of substances, assessing their general condition and recording deaths. Next, lethal doses LD50, LD0, LD16, LD84, and LD100 were calculated using the Probit analysis method. LD0, LD16, LD84, and LD100 are given in Supplementary Material (Table S1).

mice of the CD-1 line = assay: as above
Experimental: as §1, §2, §3

HuTu 80 [2] = details: calculated relative to the cell line WI38 (a)
PANC-1 [3] = assay: cells; details: Homo sapiens, PANC-1, 48 h, read-out: Cytotoxic Effects (IC50)
MCF-7 [4] = assay: cells; details: Homo sapiens, MCF7, 48 h, read-out: Cytotoxic Effects (IC50)
DU-145 [5] = details: calculated relative to the cell line WI38 (a)
HuTu 80 [6] = assay: cells; details: Homo sapiens, HuTu80, 48 h, read-out: Cytotoxic Effects (IC50)
Hep G2 [7] = assay: cells; details: Homo sapiens, HepG2, 48 h, read-out: Cytotoxic Effects (IC50)
T98G [8] = details: calculated relative to the cell line WI38 (a)
Hep G2 [9] = details: calculated relative to the cell line WI38 (a)
DU-145 [10] = assay: cells; details: Homo sapiens, DU-145, 48 h, read-out: Cytotoxic Effects (IC50), DU-145, MTT assay, 48 h
MCF-7 [11] = details: calculated relative to the cell line WI38 (a)
M-HeLa [12] = details: calculated relative to the cell line WI38 (a)
PC3 [13] = details: calculated relative to the cell line WI38 (a)
M-HeLa [14] = assay: cells; details: Homo sapiens, 48 h, read-out: Cytotoxic Effects (IC50)
A549 [15] = assay: cells; details: Homo sapiens, A549, 48 h, read-out: Cytotoxic Effects (IC50)
SK-OV-3 [16] = details: calculated relative to the cell line WI38 (a)
T98G [17] = assay: cells; details: Homo sapiens, 48 h, read-out: Cytotoxic Effects (IC50)
PC3 [18] = assay: cells; details: Homo sapiens, PC-3, 48 h, read-out: Cytotoxic Effects (IC50), PC3, MTT assay, 48 h
A549 [19] = details: calculated relative to the cell line WI38 (a)
PANC-1 [20] = details: calculated relative to the cell line WI38 (a)
SK-OV-3 [21] = assay: cells; details: Homo sapiens, SK-OV-3, 48 h, read-out: Cytotoxic Effects (IC50)

With `CCCCCC[P+](c1ccccc1)(N(CC)CC)N(CC)CC` [5a, Bis(diethylamino)(hexyl)(phenyl)phosphonium iodide] the “times less toxic toward the normal WI38 cell line compared with doxorubicin” value (WI38) was 157 times, the LD50 at 14 days [1] was 44.7 mg/kg and the “onset of animal death after administration” value (mice of the CD-1 line; CD-1 mice, i.p., doses of LD100) was 1 to 2 h. The acute toxicity class (mice of the CD-1 line; according to the classification [105], parenteral administration) was “moderately toxic”, the “selectivity index (SI)” value (HuTu 80 [2]) was 210 and the IC50 (PANC-1 [3]) was 17.8 ± 1.4 µM. The IC50 (MCF-7 [4]) was 17.1 ± 1.3 µM, the “selectivity index (SI)” value (DU-145 [5]) was 10 and the IC50 (HuTu 80 [6]) was 0.3 ± 0.02 µM. For the same compound, the IC50 (Hep G2 [7]) was 16.5 ± 1.3 µM, the “selectivity index (SI)” value (T98G [8]) was 3.7 and the “selectivity index (SI)” value (Hep G2 [9]) was 3.8. For the same compound, the IC50 (DU-145 [10]) was 6.3 ± 0.5 µM, the “selectivity index (SI)” value (MCF-7 [11]) was 3.7 and the “selectivity index (SI)” value (M-HeLa [12]) was 2.7. The “selectivity index (SI)” value (PC3 [13]) was 13, the IC50 (M-HeLa [14]) was 23 ± 1.6 µM and the IC50 (A549 [15]) was 17 ± 1.3 µM. For the same compound, the “selectivity index (SI)” value (SK-OV-3 [16]) was 3.2, the IC50 (T98G [17]) was 30.3 ± 2.1 µM and the IC50 (PC3 [18]) was 4.9 ± 0.4 µM. The “selectivity index (SI)” value (A549 [19]) was 3.7, the “selectivity index (SI)” value (PANC-1 [20]) was 3.5 and the IC50 (SK-OV-3 [21]) was 20 ± 1.6 µM.
